The record followed here is PMC12651750 (Cells, 2025).

Like-named read-outs stand apart in the source and are kept apart here.

Assay [1] concerns Jurkat, human leukemic T cell line. Kind of assay: Anti-proliferation MTT / CCK-8 assay. The format is cell-based. The note with it: Homo sapiens, Jurkat, 72 h. As for the experimental part: These cells were purchased from the National Collection of Authenticated Cell Cultures (Shanghai, China).
(§1) The concentration of the cell suspension was adjusted to the appropriate concentration with fresh medium (the number of cells was about 30–40% of the bottom area of the well plate). 150 μL (about 1 × 10^4 cells) of prepared cell suspension containing different concentrations of NBU-2 were added to a 96-microtiter plate, and 3 replicate wells were set up for each concentration. If the cells were adherent, the cells were first allowed to grow overnight in 96 microtiter plates until the cells were adherent, and then the old medium was replaced with the drug-containing medium. The plates were incubated in a 5% CO2 cell incubator at 37 °C for 72 h. Then, 15 μL of MTT solution was added to each well, 100 μL of 10% SDS solution (pH = 2) was added after 4 h, and the plate was incubated at 37 °C with 5% CO2 overnight to fully dissolve the crystals.
(§2) The cells (about 1 × 10^4 cells) were treated with different concentrations of NBU-2 and DMSO control for different times (24 h, 48 h, 72 h), with 3 replicate wells for each concentration. Incubate at 37 °C in a 5% CO2 cell culture incubator. After a predetermined time, 10 μL of CCK-8 was added to each well and incubated for 2 h. The absorbance was measured at the excitation wavelength of 450 nm.

The test system of assay [2] is 4T1, mouse breast cancer cell line. Kind of assay: Anti-proliferation MTT / CCK-8 assay. The format is cell-based. As to conditions: 72 h.
Text: (§3) K562, human erythroleukemia line; HL-60, human leukemic cell line; Jurkat, human leukemic T cell line; CCRF-CEM, human leukemic lymphoblasts; U937, human histiocytic lymphoma; HCT-116, human colorectal cancer cell line; A549, human lung cancer cell line; Hep G2, human hepatoma cell lines; MDA-MB-231, MCF-7, human breast cancer cell line; 4T1, mouse breast cancer cell line; PC12, pheochromocytoma of the rat adrenal medulla; HUVEC, human umbilical vein endothelial cells. These cells were purchased from the National Collection of Authenticated Cell Cultures (Shanghai, China).
as §1, with “crystals. Finally, the absorbance value of each well was measured at 570 and 655 nm.” for “crystals.”
as §2
On the technique in general: Tetrazolium dyes change colour on reduction, which living cells bring about.

Assay [3] concerns A549, human lung cancer cell line. Kind of assay: Anti-proliferation MTT / CCK-8 assay. The note with it: A549, read-out: IC50 proliferation A549, heading: IC50 proliferation A549, 72 h, mean ± SEM of three independent assays. The assay is classed as cell-based.
Text: as §3
as §1, with “crystals. Finally, the absorbance value of each well was measured at 570 and 655 nm.” for “crystals.”
as §2

Assay [4] deals with CCRF-CEM, human leukemic lymphoblasts. The assay is described as follows: Anti-proliferation MTT / CCK-8 assay. The assay is classed as cell-based. The note with it: read-out: IC50 proliferation CCRF-CEM, heading: IC50 proliferation CCRF-CEM, 72 h, mean ± SEM of three independent assays.
Text: as §3
as §1, with “crystals. Finally, the absorbance value of each well was measured at 570 and 655 nm.” for “crystals.”
as §2

Assay [5] has as its system HCT-116, human colorectal cancer cell line. Kind of assay: Anti-proliferation MTT / CCK-8 assay. The format is cell-based. The note with it: HCT-116, read-out: IC50 proliferation HCT-116, heading: IC50 proliferation HCT-116, 72 h, mean ± SEM of three independent assays.
Text: as §3
as §1, with “crystals. Finally, the absorbance value of each well was measured at 570 and 655 nm.” for “crystals.”
as §2

For assay [6], the system named is HL-60, human leukemic cell line. The assay is described as follows: Anti-proliferation MTT / CCK-8 assay. The format is cell-based. As to conditions: HL-60, read-out: IC50 proliferation HL-60, heading: IC50 proliferation HL-60, 72 h, mean ± SEM of three independent assays.
Text: as §3
as §1, with “crystals. Finally, the absorbance value of each well was measured at 570 and 655 nm.” for “crystals.”
as §2

The subject of assay [7] is Hep G2, human hepatoma cell lines. The assay is described as follows: Anti-proliferation MTT / CCK-8 assay. The format is cell-based. As to conditions: HepG2, read-out: IC50 proliferation HepG2, heading: IC50 proliferation HepG2, 72 h, mean ± SEM of three independent assays.
Text: as §3
as §1, with “crystals. Finally, the absorbance value of each well was measured at 570 and 655 nm.” for “crystals.”
as §2

The test system of assay [8] is K562, human erythroleukemia line. Kind of assay: Anti-proliferation MTT / CCK-8 assay. The format is cell-based. As to conditions: K562, read-out: IC50 proliferation K562, heading: IC50 proliferation K562, 72 h, mean ± SEM of three independent assays.
Text: as §3
as §1, with “crystals. Finally, the absorbance value of each well was measured at 570 and 655 nm.” for “crystals.”
as §2

In assay [9] the test system is MDA-MB-231, human breast cancer cell line. The assay is described as follows: Anti-proliferation MTT / CCK-8 assay. The note with it: MDA-MB-231, read-out: IC50 proliferation MDA-MB-231, heading: IC50 proliferation MDA-MB-231, 72 h, mean ± SEM of three independent assays. The format is cell-based.
Text: as §3
as §1, with “crystals. Finally, the absorbance value of each well was measured at 570 and 655 nm.” for “crystals.”
as §2

Assay [10] relates to PC12, pheochromocytoma of the rat adrenal medulla. Kind of assay: Anti-proliferation MTT / CCK-8 assay. The format is cell-based. As to conditions: PC-12, 72 h.
Text: as §3
as §1, with “crystals. Finally, the absorbance value of each well was measured at 570 and 655 nm.” for “crystals.”
as §2

For assay [11], the system named is U937, human histiocytic lymphoma. Kind of assay: Anti-proliferation MTT / CCK-8 assay. As to conditions: U-937, read-out: IC50 proliferation U937, heading: IC50 proliferation U937, 72 h, mean ± SEM of three independent assays. The format is cell-based.
Text: as §3
as §1, with “crystals. Finally, the absorbance value of each well was measured at 570 and 655 nm.” for “crystals.”
as §2

A further assay addresses HDAC1 (Homo sapiens, UniProt Q13547). The assay is described as follows: In vitro HDAC enzymatic inhibition assay (HDAC kit, fluorescence).
Another assay deals with T1, HDAC6 (Homo sapiens, UniProt Q9UBN7).
T1 sequence (Q9UBN7 1-1215): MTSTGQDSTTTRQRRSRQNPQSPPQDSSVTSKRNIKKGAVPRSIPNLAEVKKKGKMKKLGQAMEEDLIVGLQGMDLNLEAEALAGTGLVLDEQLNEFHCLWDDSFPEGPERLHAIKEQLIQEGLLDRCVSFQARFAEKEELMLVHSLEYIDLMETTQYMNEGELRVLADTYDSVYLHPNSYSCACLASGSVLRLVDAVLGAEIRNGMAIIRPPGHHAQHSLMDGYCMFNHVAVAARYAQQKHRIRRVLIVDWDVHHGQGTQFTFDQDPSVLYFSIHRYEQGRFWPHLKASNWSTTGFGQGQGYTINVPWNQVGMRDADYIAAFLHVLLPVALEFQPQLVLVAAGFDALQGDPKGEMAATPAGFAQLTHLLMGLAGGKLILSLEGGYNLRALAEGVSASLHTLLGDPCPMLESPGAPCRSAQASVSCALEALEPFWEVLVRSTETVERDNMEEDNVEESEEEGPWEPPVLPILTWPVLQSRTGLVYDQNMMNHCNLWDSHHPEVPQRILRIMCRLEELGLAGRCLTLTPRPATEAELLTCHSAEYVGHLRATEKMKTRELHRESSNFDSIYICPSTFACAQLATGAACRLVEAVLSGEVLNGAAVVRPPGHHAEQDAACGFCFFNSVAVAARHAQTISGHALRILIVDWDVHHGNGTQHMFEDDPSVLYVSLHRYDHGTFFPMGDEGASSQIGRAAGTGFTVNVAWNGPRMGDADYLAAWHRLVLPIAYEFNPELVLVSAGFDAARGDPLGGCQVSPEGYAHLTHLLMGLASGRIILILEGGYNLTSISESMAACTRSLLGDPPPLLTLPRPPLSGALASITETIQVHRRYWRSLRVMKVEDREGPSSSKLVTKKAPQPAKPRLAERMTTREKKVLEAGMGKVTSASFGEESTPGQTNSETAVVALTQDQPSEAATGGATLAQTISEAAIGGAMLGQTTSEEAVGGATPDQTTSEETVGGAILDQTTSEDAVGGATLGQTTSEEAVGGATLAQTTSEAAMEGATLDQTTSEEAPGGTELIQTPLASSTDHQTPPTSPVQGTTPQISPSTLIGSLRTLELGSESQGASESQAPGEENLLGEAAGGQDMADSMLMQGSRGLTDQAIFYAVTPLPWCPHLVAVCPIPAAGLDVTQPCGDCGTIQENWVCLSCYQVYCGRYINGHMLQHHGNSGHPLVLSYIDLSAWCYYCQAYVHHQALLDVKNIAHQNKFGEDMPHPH
Described as above.

Sequence of HDAC1 (Q13547 whole entry): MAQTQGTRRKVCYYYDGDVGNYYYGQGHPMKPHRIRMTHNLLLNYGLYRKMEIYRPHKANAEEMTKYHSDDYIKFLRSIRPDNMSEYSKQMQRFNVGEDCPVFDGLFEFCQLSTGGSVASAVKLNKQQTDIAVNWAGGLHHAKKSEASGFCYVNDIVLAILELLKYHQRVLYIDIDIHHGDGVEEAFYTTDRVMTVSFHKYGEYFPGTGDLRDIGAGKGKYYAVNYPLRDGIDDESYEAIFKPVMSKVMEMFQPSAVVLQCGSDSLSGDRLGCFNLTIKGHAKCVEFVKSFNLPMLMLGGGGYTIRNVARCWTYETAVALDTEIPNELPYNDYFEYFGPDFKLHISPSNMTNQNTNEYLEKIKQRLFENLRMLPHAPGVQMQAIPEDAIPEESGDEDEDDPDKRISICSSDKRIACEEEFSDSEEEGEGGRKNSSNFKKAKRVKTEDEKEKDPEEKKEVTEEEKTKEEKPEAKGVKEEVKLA
Description for HDAC1: (§4) Enzymatic assays were performed by Shanghai ChemPartner according to the HDAC kit protocol. […] Fluorescence was recorded at 355 nm excitation and 460 nm emission on a Synergy MX reader (PerkinElmer Life Sciences, Boston, MA, USA). IC50 values were derived from dose–response curves.
Description for HDAC6: as §4

For `Nc1cc(F)ccc1NC(=O)c1ccc(CNC(=O)/C=C/c2cccnc2)cc1` [Chidamide, reference compound], the IC50 in [1] (read-out: IC50 against Jurkat cells) is 2230 nM; in [1] (read-out: IC50 proliferation Jurkat, heading: IC50 proliferation Jurkat, mean ± SEM of three independent assays) it was 2230 ± 220 nM; in assay [2] it was more than 50 nM; in [3] it was more than 50000 nM; in assay [4] it was 1660 ± 340 nM; in assay [5], 3860 ± 1090 nM. Moreover, the IC50 in assay [6] was 860 ± 70 nM; in assay [7] it was 500 ± 20 nM; in assay [8], 1650 ± 640 nM; in [9], 9750 ± 1780 nM; in assay [10], more than 50 nM; in assay [11], 1310 ± 380 nM.

Regarding `O=C(NO)c1ccc(CNc2ccnc3ccccc23)cc1` [NBU-1, N-hydroxy-4-((quinolin-4-ylamino)methyl)benzamide], the IC50 amounted to 242 ± 15 nM at HDAC1 and 114 ± 28 nM at HDAC6.
